Data set [1] concerns CLL cells. Description: Viability of CLL cells taken from patients before and after oral etodolac. The format is in vivo, human. The conditions noted are these: for in vitro survival of CLL cells after treatment compared to before treatment: 400 mg tablet, second tablet 12 hours later.
Procedure: The circles show CLL cells before etodolac treatment. In FIGS. 6-7, the upward pointing triangles represent CLL cell viability after etodolac treatment, wherein the cells are dispersed in medium containing the pretreatment plasma. The downward pointing triangles are CLL cells after treatment maintained in medium with the post-treatment plasma. […] Cells were analyzed within 30 minutes in a Becton Dickinson FAC-Scalibur cytofluorometer. After suitable comprehension, fluorescence was recorded at different wavelength: DiOC6 and DHR at 525 nm (Fl-1) and PI at 600 nm (FL-3).
A further data set concerns A549 (Lung). Kind of data set: Cytotoxicity by MTT assay, A549. It is filed as cell-based. The settings on record: Homo sapiens, 72 h, three days continuous exposure.
The test system of a further data set is prostate cancer tissue. Description: Prostatectomy tissue samples incubated 72 hours, histology. It is filed as cell-based. The source says:
The tissues were next fixed in 4% paraformaldehyde in PBS, embedded in paraffin, sectioned and stained with hematoxylin and eosin.

For the next data set, the system named is Bag-1. Kind of data set: Bag-1 level in LNCaP cells, SDS-PAGE immunoblot. The format is cell-based. The conditions noted are these: 100 μM, as early as two hours, FIG. 11B.
Another data set relates to Mcl-1. Kind of data set: Mcl-1 level in LNCaP cells, SDS-PAGE immunoblot. It is filed as cell-based.
For the next data set, the system named is normal B cells. Kind of data set: Viability of normal B lymphocytes (anti-CD19 staining, DiOC6 fluorescence). It is filed as cell-based, human. The conditions noted are these: 1.0 mM, 24 hours.
The next data set has as its system Bcl-2 and Bax. Kind of data set: Bcl-2 and Bax levels after etodolac incubation. It is filed as cell-based. The conditions noted are these: data not shown.
The test system of data set [2] is normal peripheral blood lymphocytes (PBL). Description: Viability of normal peripheral blood lymphocytes, erythrocin B exclusion assay. The format is cell-based, human. The conditions noted are these: FIG. 1.
The test system of another data set is PC-3 (Prostate). Description: Cytotoxicity by MTT assay, PC-3. It is filed as cell-based. The settings on record: 72 h, three days continuous exposure.
The test system of another data set is OVCAR-3 (Ovarian). Description: Cytotoxicity by MTT assay, OVCAR-3. The settings on record: Homo sapiens, 72 h, three days continuous exposure. It is filed as cell-based.
The subject of another data set is MDA-MB-231 (Breast). Description: Cytotoxicity by MTT assay, MDA-MB-231. The format is cell-based. The conditions noted are these: Homo sapiens, 72 h, three days continuous exposure.
The conditions of data set [3]: cited from earlier work.
A further data set deals with HCT-116 (Colon). Description: Cytotoxicity by MTT assay, HCT-116. The format is cell-based. The settings on record: Homo sapiens, 72 h, three days continuous exposure.
The subject of the next data set is LNCaP-FGC (Prostate). Kind of data set: Cytotoxicity by MTT assay, LNCaP-FGC. It is filed as cell-based. The settings on record: 72 h, three days continuous exposure.
For data set [4], the system named is CLL cells. Description: Viability of CLL cells, erythrocin B exclusion assay.
The subject of a further data set is Alva-31 (Prostate). Description: Cytotoxicity by MTT assay, Alva-31. The format is cell-based. The settings on record: 72 h, three days continuous exposure.
The next data set relates to SW260 (Colon). Kind of data set: Cytotoxicity by MTT assay, SW260. The settings on record: 72 h, three days continuous exposure. The format is cell-based.
The subject of data set [5] is CLL cells. Description: MTT cytotoxicity assay, CLL cells. The format is cell-based. The conditions noted are these: Homo sapiens, CLL cell, 72 hours, duplicate. Here is the method: The compounds of the invention were screened for CLL apoptotic activity by flow cytometry and a MTT-based assay. […] Primary PBL cells were acquired from the San Diego Blood Bank, San Diego, Calif. DiOC6 and PI dyes were obtained from Molecular Probes, Eugene, Oreg. Otherwise, unless indicated, all other reagents were purchased from Sigma (St. Louis, Mo.), and all test compounds were dissolved in sterile DMSO.
To get a more concise measure of the EC50 and confirm the flow cytometry results, a MTT (3-(4,5-dimethylthiazol-2-yl)-2,5-diphenyl tertrazolium bromide) assay using a procedure similar to that described by Mosmann, T., J Immunol Methods. 1983, 65, 55-63, was performed on all analogs. This method provided a larger number of datapoints so that a value for the EC50 could be extrapolated.
This assay was based on a procedure described by Mosmann. Briefly, in each well of a 96-well plate, 5×10^5 CLL cells were suspended in 100 μL of […] medium containing 10% FBS, 100 μg/mL penicillin, and 100 μg/mL streptomycin. Serial dilution of test compounds were then performed in duplicate across the plate to establish a concentration gradient from 0 to 1000 μM. After 72 hours of incubation at 37° C., the cells were incubated for 6 more hours in the presence of 20 μL of 5 mg/mL MTT (3-(4,5-dimethylthiazol-2-yl)-2,5-diphenyl tertrazolium bromide) before dissolving the resulting crystals in 50 μL lysis buffer (15% SDS, 15 mM HCl) overnight. Afterwards, the absorbance of each well was measured at […] in a Finstrument Microplate Reader, and the data was analyzed by Graphpad Prism Software, version 2.0b.

A further data set is described as follows: in vitro. The conditions noted are these: human.
A further data set concerns normal bone marrow cells. Description: Killing of normal bone marrow cells in patient bone marrow (propidium iodide / anti-CD38, FACS). It is filed as cell-based, human. The conditions noted are these: 72 hours, marrow of two patients; FIGS. 9-10.
For a further data set, the system named is multiple myeloma cells. Description: Killing of multiple myeloma cells in patient bone marrow (propidium iodide / anti-CD38, FACS). The settings on record: 72 hours, marrow of two patients; FIGS. 9-10. The format is cell-based, human.
A further data set relates to adjuvant polyarthritis. The conditions noted are these: reduction in paw volume, prostaglandin synthetase inhibitory activity; cited from earlier work.
A short description of data set [6]: Plasma pharmacokinetics of etodolac enantiomers. It is filed as in vivo. The settings on record: 1 gram dosage, human subject.

Structures are written as SMILES.

We go through two compounds from patent US7361680B2, “Indole compounds useful for the treatment of cancer” (The Regents of the University of California, priority 1999, dated 2008).

Procedure for normal B cells: Then B lymphocytes were identified by staining with anti-CD19 antibody, and viability was assessed by DiOC6 fluorescence.

Take `CCc1cccc2c3c([nH]c12)C(CC)(CC(=O)O)OCC3` (racemic) [etodolac, 1,8-Diethyl-1,3,4,9-tetrahydropyrano[3,4-b]indole-1-acetic acid]: the “in vitro survival of CLL cells after treatment compared to before treatment” value is “less dramatic but similar effect” in the data set on CLL cells [1] (patient one, FIG. 7) and “shortened survival” in the data set on CLL cells [1] (patient two, FIG. 6). Also, the “cell death by apoptosis (DiOC6 staining, dots in left lower box) after versus before treatment” value in the data set on CLL cells [1] (patient two, detectable at 12 hours, increases after 24 hours, FIG. 8) was “much higher”. Further, the IC50 was greater than 1000 µM in the data set with A549 (Lung); 340 ± 20 µM in the data set with PC-3 (Prostate); greater than 1000 µM in the data set with OVCAR-3 (Ovarian); greater than 1000 µM with MDA-MB-231 (Breast); 450 ± 15 µM in the data set with HCT-116 (Colon); 400 ± 35 µM with LNCaP-FGC (Prostate). Besides, the IC50 with Alva-31 (Prostate) is greater than 1000 µM; with SW260 (Colon), 1000 ± 120 µM. Moreover, the “activity in prostatectomy samples” value with prostate cancer tissue was “active”. Moreover, the “effect on normal basal cells in prostatectomy samples” value in the data set on prostate cancer tissue was “did not affect normal basal cells”. The “toxicity to tumor cells in prostatectomy samples” value in the data set on prostate cancer tissue (FIG. 15) was “selectively toxic to the tumor cells”. Also, the Bag-1 levels entry with Bag-1 is given as “fell”. For the same compound, in the data set with Mcl-1 (100 μM, as early as two hours, LNCaP, FIG. 11A), the Mcl-1 levels entry is given as “fell”. The “viability of normal B cells compared to control cultures” value with normal B cells is given as “did not reduce the viability”. Besides, the “Bcl-2 and Bax levels” value in the data set on Bcl-2 and Bax is “did not alter”. Moreover, in data set [2], the “concentration at which significant death of normal PBLs occurred” value came out at 800 µM. Further, the elimination half-life in [3] (in vivo) was 6 to 8 h. The CLL cells killed with CLL cells [4] (200 μM, 48 hour exposure, FIG. 2) is 50%. The “cytotoxic effect on CLL cells, either drug alone” value with CLL cells [4] (fludarabine 10 nM or etodolac 10 μM alone, 48 hours, FIG. 3) is reported as “ineffective”.
With `CCc1cccc2c3c([nH]c12)[C@@](CC)(CC(=O)O)OCC3` [R-etodolac], it took 247 µM to reach a half-maximal effect with CLL cells [5] (EC50). For the same compound, in the data set “in vitro”, the CC50 at 48 h was roughly 500 µM. Further, the IC50 in the data set with A549 (Lung) is greater than 1000 µM; in the data set on PC-3 (Prostate) it was 150 ± 15 µM; in the data set with OVCAR-3 (Ovarian), greater than 1000 µM; with MDA-MB-231 (Breast) it was greater than 1000 µM; in the data set with HCT-116 (Colon), 280 ± 20 µM; in the data set on LNCaP-FGC (Prostate), 270 ± 50 µM. Moreover, the concentration for half-maximal inhibition (IC50) in the data set on Alva-31 (Prostate) was greater than 1000 µM. In addition, the “activity in prostatectomy samples” value with prostate cancer tissue is given as “active”. Besides, the “Mcl-1 degradation by the enantiomers” value with Mcl-1 is reported as “induced Mcl-1 degradation at equivalent concentrations”. The “killing of normal bone marrow cells” value in the data set with normal bone marrow cells is “did not kill”. In addition, in the data set with multiple myeloma cells, the “killing of multiple myeloma cells” value is listed as “dose-dependently killed”. Further, in the data set with adjuvant polyarthritis, the anti-inflammatory activity entry is “No anti-inflammatory activity was discernible”. The “maximal plasma concentration that a dosage should yield” value in [6] is given as “about 400 μM”. For the same compound, the maximum plasma concentration result in data set [3] (200 mg dose, six elderly patients) is listed as “about 33 μM”. Also, in [3] (after administration of RS-etodolac), the “plasma concentrations of the R-enantiomer relative to the S-enantiomer” value was “about 10 fold higher”. The “toxicity of the enantiomers to CLL cells” value in the data set with CLL cells [4] (RPMI 1640 with 10% autologous plasma, FIG. 5) is “equivalently cytotoxic”.
